Source: patent US8012929B2, “Peptides directed for diagnosis and treatment of amyloid-associated diseases” (Tel Aviv University Future Technology Development L.P., priority 2002, dated 2011)
Where two headings read alike, the source gives them in different places. Square brackets hold non-standard residues; d marks the D form. Peptide text beside a SMILES is read from it. Aib = CC(C)(N)C(=O)O

Assays:
[1] = test system: hAPP(751) transgenic mice; conditions: mouse, in vivo, ip
Experimental: Experimental design—20 (+3 reserves) 4.5 month (±1 week) old male hAPP(751) transgenic mice were divided into 2 treatment groups, a control group—treated with vehicle and an experimental group—treated with D-Trp-Aib. Animals were treated for 120 days with 3 intraperitoneal (i.p.) injections of 1 mg per animal per day 7 of the original 20 animals died during the 4-month experimental period, 4 of them from the control group.

[2] = Acute toxicity in mice, single i.v. dose; conditions: both sexes, mouse, in vivo, iv
Experimental: Acute Toxicity in Mice—Single dose LD50 or maximal tolerated dose (MTD) of D-Trp-Aib was evaluated by i.v. administration in mice (Harlan Biotech Israel). The sequential method applied in a stepwise procedure, using a minimum amount of animals. At a preliminary phase, an initial single target dose of 250 mg/kg was administered to a group of one male and one female. Further higher dose levels of 500, 1,000 and 750 mg/kg were administered in view of presence or absence of lethality incidence and/or severe adverse reactions at each applied level. The time intervals between the test groups dosing sessions were at least 24 hours. Following termination of the preliminary phase and based on its findings, a main phase was conducted where 5 males & 5 females were administered the jointly selected dose of 750 mg/kg, the highest dose level that was suspected to produce no mortality.

[3] = in vivo; conditions: CD-1, mouse
Experimental: Animals were treated following a 4 hour fast, with water ad libitum, and fed 2 hours after administration. Thereafter, animals were sacrificed at different time intervals (5 minutes-8 hours; 3 animals in each group, at every time interval were sacrificed by sodium pentobarbital anesthesia followed by exanguination) and blood (plasma), brain, liver, kidney and pancreas were collected and later analyzed. Plasma and brain tissue samples were analyzed by high-performance liquid chromatography with tandem mass spectrometry (LC-MS/MS).
In case of brain tissue, only AUC0-4 was calculated. All parameters were calculated using the software PK solutions Version 2.0 for Noncompartmental Pharmacokinetics Data analysis (Summit Research Services, Montrose, Colo.).

[4] = test system: neuronal primary cell cultures; test: Neurotoxicity (5% assay), MTT and Calcein-AM; format: cell-based
Experimental: Neurotoxicity (5% assay)—Neural cells were grown in Poly-D-Lysine coated 96-well plates. Eighty μl medium containing 48.000 cells/well were added to each well plate containing 80 μl T.I. in the appropriate concentrations, or nutrition medium (control). Plates were kept at 37° C., 95% humidity and 5% CO2. Neurons, which begin to extend processes after a few hours in culture, were maintained in the same medium without change or addition of media for 8 days, until the end of the experiments. For Neurotoxicity, the MTT-assay was effected using a plate-reader (570 nm) for determining the culture viability, as described in Example 49. The MTT assay is based on the ability of a dehydrogenase enzyme from an active mitochondiria to produce a dark blue formazan product from the pale yellow MTT substrate, by cleaving the MTT tetrazolium rings. Since in the MTT-assay sometimes interference between the substance/drug applied and the generation of formazane crystals can be seen, it is necessary to introduce a second evaluation system. Therefore, the viability of cultures was determined with the Calcein-AM assay as well, as described in Neri et al., [Clin. Diagn. Lab Immunol. 1131-1135 (2001)], using an automated fluorescence plate-reader (485/535 nm). Calcein AM is a widely used green fluorescent cell marker, which is membrane-permeant and thus can be introduced into cells via incubation. […]

[5] = Membrane permeability in Caco-2 cell monolayer; format: in vitro ADME; conditions: human, apical to basolateral, read-out: recovery at the experimental end point
Experimental: Membrane permeability of D-Trp-Aib as studied in Caco-2 cells—The CaCo-2 system is based on the intestinal properties of the Caco-2 cells (ATCC Accession No. HTB-37), which preserved the polarity that is seen in the intestinal wall—an apical brush border that faces the intestinal lumen and a basolateral side that faces the body. After initial culturing (37° C. in an atmosphere of 5% CO2 and 100% humidity; medium: D-glucose DMEM supplemented with 1% Lglutamine, 1% nonessential amino acids, 1% sodium pyruvate, 1% penicillinstreptomycin, and 10% fetal bovine serum), cells were harvested and grown (14 days) on polycarbonate membranes, on which they formed a tight monolayer, (width of one cell, as in the intestine) allowing specific compounds to penetrate. […] D-Trp-Aib membrane permeability of the Caco-2 cell monolayer was assessed at concentrations of 0.2 mM and 1 mM, and compared to the standards propranolol (1 mM/apical buffer-see below) and ^3H-mannitol (5.26 Ci/mmole apical buffer—see below), known to pass via transcellular and paracellular routes, respectively. […] Substance samples and Propranolol standard were analyzed using HPLC. ^3H-Mannitol samples were subjected to analysis by liquid scintillation counting in a Packard TopCount NXT. […]

[6] = inhaled or intranasal, 20 mg/kg

SMILES: CC(C)(NC(=O)[C@H](N)Cc1c[nH]c2ccccc12)C(=O)O [D-Trp-Aib] (H-[dW]-[Aib]-OH)
- long-term toxicity [1]: no long-term toxicity
- MTD [2]: > 750 mg/kg
- MTD ([2]; single dose, i.v., read-out: maximal tolerated dose (MTD)): < 1000 mg/kg
- half-life [3]: 1.1 to 1.2 h
- bioavailability ([3]; inhaled or intranasal): 65.5%
- AUC(0-inf) [3, 6]: 11400 ng·h/mL
- AUC(0-t) [3, 6]: 10600 ng·h/mL
- MRT [3, 6]: 0.98 h
- half-life [3, 6]: 1.29 h
- AUC(0-inf) ([3]; iv, 50 mg/kg): 40600 ng·h/mL
- AUC(0-t) ([3]; iv, 50 mg/kg): 40600 ng·h/mL
- MRT ([3]; iv, 50 mg/kg): 0.44 h
- Vd ([3]; iv, 50 mg/kg): 2.16 L/kg
- bioavailability ([3]; iv, 50 mg/kg): 100%
- clearance ([3]; iv, 50 mg/kg): 20.5 mL/min/kg
- half-life ([3]; iv, 50 mg/kg): 1.22 h
- AUC(0-inf) ([3]; po, 50 mg/kg): 15700 ng·h/mL
- AUC(0-t) ([3]; po, 50 mg/kg): 15700 ng·h/mL
- Cmax ([3]; po, 50 mg/kg): 9810 ng/mL
- MRT ([3]; po, 50 mg/kg): 1.29 h
- Tmax ([3]; po, 50 mg/kg): 1 h
- bioavailability ([3]; po, 50 mg/kg): 38.7%
- half-life ([3]; po, 50 mg/kg): 1.07 h
- cytotoxicity towards neuronal primary cell cultures ([4]; MTT viability assay and Calcein AM assay): noncytotoxic
- neuronal viability compared to the untreated control ([4]; concentration of up to 150 μM): did not alter neuronal viability
- recovery at 90 min ([5]; 0.2 mM): 37.9%
- recovery at 90 min, 1 mM ([5]; 1 mM): 19.3%
